# Values quoted from earlier work in patent US12502395B2, “Progestin/testosterone transdermal gel” (The Population Council, Inc., priority 2022, dated 2025).
# Key:
# [1] = tested on: pregnancy; settings: weekly intramuscular injection of 200 mg/week for 12 months
# [2] = tested on: androgenic, estrogenic, or glucocorticoid actions; settings: at up to x2000 the therapeutic levels
# [3] = most common adverse event; 100 mg/day of T
smiles,measurement,setting,value
CCCCCCC(=O)O[C@H]1CC[C@H]2[C@@H]3CCC4=CC(=O)CC[C@]4(C)[C@H]3CC[C@]12C [testosterone enanthate],Pregnancy rate,[1],0.8 pregnancy per 100 person-years of exposure
"C=C1C[C@H]2[C@@H]3CCC4=CC(=O)CC[C@@H]4[C@H]3CC[C@]2(C)[C@@]1(OC(C)=O)C(C)=O [NES, 16-methylene-17α-acetoxy-19-norpregn-4-ene-3,20-dione]","Androgenic, estrogenic, or glucocorticoid actions",[2],"does not carry androgenic, estrogenic, or glucocorticoid actions"
"C[C@]12CC[C@H]3[C@@H](CCC4=CC(=O)CC[C@@]43C)[C@@H]1CC[C@@H]2O [T, Testosterone]","Acne, % of subjects",[3],21%
